# Columns and labels:
# [1] = test system: reduction in bladder capacity following continuous infusion of dilute acetic acid; experiment: Dilute acetic acid irritative model, bladder capacity by cystometry; format: in vivo, rat; settings: isobologram, drug alone; for common maximal effect, return to % of saline control bladder capacity: group mean data; for common maximal effect (target value), return to % of saline control bladder capacity: individual responses
# Description: Urethane anesthetized (1.2 g/kg) normal female rats were utilized in this study.
# Animals were dosed by volume of injection=body weight in kg.
# Animal Preparation: Female rats (250-300 g body weight) were anesthetized with urethane (1.2 g/kg) and a saline-filled catheter (PE-50) was inserted into the jugular vein for intravenous drug administration. […] The abdominal cavity was moistened with saline and closed by covering with a thin plastic sheet in order to maintain access to the bladder for emptying purposes. Fine silver or stainless steel wire electrodes were inserted into the external urethral sphincter (EUS) percutaneously for electromyography (EMG).
# Following 30 minutes of AA infusion, 3 vehicle injections were made at 20 minute intervals to determine vehicle effects, if any.
# P<0.050 was considered significant.
# [2] = test system: beta-adrenergic; settings: cited from earlier work
# [3] = preclinical and clinical studies, cited from earlier work
SMILES,"common maximal effect, return to % of saline control bladder capacity [1]","common maximal effect (target value), return to % of saline control bladder capacity [1]",potency of L-enantiomer relative to D-enantiomer [2],blood levels of gabapentin across a broad range of oral doses ([3]; oral),absorption from the large intestine [3]
"NCC1(CC(=O)O)CCCCC1 [gabapentin, 1-(aminomethyl)cyclohexaneacetic acid]",43 % of saline control,31 % of saline control,–,–,–
"CCN(CC)CC#CCOC(=O)C(O)(c1ccccc1)C1CCCCC1 (stereo not shown) [oxybutynin, 4-diethylaminio-2-butynyl phenylcyclohexyglycolate]",43 % of saline control,31 % of saline control,–,–,–
"CC(C)NC[C@H](O)COc1cccc2ccccc12 [L-enantiomer of propranolol, propranolol]",–,–,100 times,–,–
CC(OC(=O)NCC1(CC(=O)O)CCCCC1)OC(=O)C(C)C (stereo not shown) [XP13512],–,–,–,dose proportional blood levels of gabapentin,absorbed efficiently from the large intestine
